Measurements taken from patent US6534447B1, “Herbicidal pyridine compounds” (BASF Aktiengesellschaft, priority 1999, dated 2003).

How the values were obtained:
Assay type in all cases: in vivo
[1] = test system: Dolium multiflorum (LOLMU, ryegrass); experiment: Post-emergence herbicidal evaluation; settings: rate 0.100 kg/ha, 3 weeks after treatment
Description: (§1) These acetone solutions are diluted with water and the resulting formulations applied at dosage levels equivalent of about 0.025 to 0.4 kg per hectare of test compound per pot. After spraying the plants are placed on greenhouse benches and are cared for in the usual manner, commensurate with conventional greenhouse practices. From 3 weeks after treatment, the seedling plants are examined and rated according to the rating system provided above. A rating 0 indicates growth as untreated control, a rating 9 indicates death.

[2] = test system: Matricaria inodora (MATIN, mayweed); experiment: Post-emergence herbicidal evaluation; settings: 3 weeks after treatment
Description: as §1

[3] = test system: Ipomoea hederacea (IPOHE, morning glory); experiment: Post-emergence herbicidal evaluation; settings: 3 weeks after treatment
Description: as §1

[4] = test system: Echinochloa grus galli (ECHCG, barnyard grass); experiment: Post-emergence herbicidal evaluation; settings: 3 weeks after treatment
Description: as §1

[5] = test system: Abutilon theophrasti (ABUTH, velvetleaf); experiment: Post-emergence herbicidal evaluation; settings: 3 weeks after treatment
Description: as §1

[6] = test system: Setaria viridis (SETVI, green foxtail); experiment: Post-emergence herbicidal evaluation; settings: 3 weeks after treatment
Description: as §1

[7] = test system: Alopecurus myosuroides (ALOMY, black grass); experiment: Post-emergence herbicidal evaluation; settings: 3 weeks after treatment
Description: as §1

[8] = test system: Galium aparine (GALAP, cleaver); experiment: Post-emergence herbicidal evaluation; settings: 3 weeks after treatment
Description: as §1

[9] = test system: Stellaria media (STEME, chickweed); experiment: Post-emergence herbicidal evaluation; settings: 3 weeks after treatment
Description: as §1

[10] = test system: Zea mays (ZEAMX, maize); experiment: Pre-emergence herbicidal evaluation (crop); settings: 3 weeks after treatment
Text: (§2) The pre-emergence herbicidal activity of the compounds of the present invention is exemplified by the following test in which the seeds of a variety of monocotyledonous and dicotyledonous plants are seperately mixed with potting soil and planted on top of approximately one inch of soil in separate post. After planting, the pots are sprayed with the selected aqueous acetone solution. containing test compound in sufficient quantity to provide the equivalent of about 0.025 to 0.4 kg per hectare of test compound per pot. The treated pots are then placed on greenhouse benches, watered and cared for in accordance with conventional greenhouse procedures. From 3 weeks after treatment, the tests are terminated and each pot is examined and rated according to the rating system set forth below. [table] [table]

[11] = test system: Triticum aestivum (TRZAW, winter wheat); experiment: Pre-emergence herbicidal evaluation (crop); settings: 3 weeks after treatment
Text: as §2

[12] = test system: Glycine max (GLXMA, soyabeans); experiment: Pre-emergence herbicidal evaluation (crop); settings: 3 weeks after treatment
Text: as §2

[13] = test system: Matricaria inodora (MATIN, mayweed); experiment: Pre-emergence herbicidal evaluation; settings: 3 weeks after treatment
Text: as §2

[14] = test system: Ipomoea hederacea (IPOHE, morning glory); experiment: Pre-emergence herbicidal evaluation; settings: 3 weeks after treatment
Text: as §2

[15] = test system: Echinochloa grus galli (ECHCG, barnyard grass); experiment: Pre-emergence herbicidal evaluation; settings: 3 weeks after treatment
Text: as §2

[16] = test system: Abutilon theophrasti (ABUTH, velvetleaf); experiment: Pre-emergence herbicidal evaluation; settings: 3 weeks after treatment
Text: as §2

[17] = test system: Setaria viridis (SETVI, green foxtail); experiment: Pre-emergence herbicidal evaluation; settings: 3 weeks after treatment
Text: as §2

[18] = test system: Alopecurus myosuroides (ALOMY, black grass); experiment: Pre-emergence herbicidal evaluation; settings: 3 weeks after treatment
Text: as §2

[19] = test system: Galium aparine (GALAP, cleaver); experiment: Pre-emergence herbicidal evaluation; settings: 3 weeks after treatment
Text: as §2

[20] = test system: Stellaria media (STEME, chickweed); experiment: Pre-emergence herbicidal evaluation; settings: 3 weeks after treatment
Text: as §2

SMILES: Cc1cc(OCCC(Cl)SC(F)(F)F)nc(Oc2cc(C(F)(F)F)nn2C)c1 (stereo not shown) [Example 3, 2-(1-Methyl-3-trifluoromethylpyrazol-5-yloxy)-4-methyl-6-(3-chloro-3-trifluoromethylthiopropyloxy)pyridine]
- LOLMU rating [1]: 8 (8 - Approaching complete kill)
- MATIN rating ([2]; rate 0.025 kg/ha): 5 (5 - Definite injury)
- MATIN rating ([2]; rate 0.100 kg/ha): 6 (6 - Herbicidal effect)
- MATIN rating ([2]; rate 0.400 kg/ha): 7 (7 - Good herbicidal effect)
- IPOHE rating ([3]; rate 0.025 kg/ha): 9 (9 - Complete kill)
- IPOHE rating ([3]; rate 0.100 kg/ha): 9 (9 - Complete kill)
- IPOHE rating ([3]; rate 0.400 kg/ha): 9 (9 - Complete kill)
- ECHCG rating ([4]; rate 0.025 kg/ha): 6 (6 - Herbicidal effect)
- ECHCG rating ([4]; rate 0.100 kg/ha): 8 (8 - Approaching complete kill)
- ECHCG rating ([4]; rate 0.400 kg/ha): 9 (9 - Complete kill)
- ABUTH rating ([5]; rate 0.025 kg/ha): 5 (5 - Definite injury)
- ABUTH rating ([5]; rate 0.100 kg/ha): 7 (7 - Good herbicidal effect)
- ABUTH rating ([5]; rate 0.400 kg/ha): 7 (7 - Good herbicidal effect)
- SETVI rating ([6]; rate 0.025 kg/ha): 8 (8 - Approaching complete kill)
- SETVI rating ([6]; rate 0.100 kg/ha): 9 (9 - Complete kill)
- SETVI rating ([6]; rate 0.400 kg/ha): 9 (9 - Complete kill)
- ALOMY rating ([7]; rate 0.025 kg/ha): 5 (5 - Definite injury)
- ALOMY rating ([7]; rate 0.100 kg/ha): 7 (7 - Good herbicidal effect)
- ALOMY rating ([7]; rate 0.400 kg/ha): 7 (7 - Good herbicidal effect)
- GALAP rating ([8]; rate 0.025 kg/ha): 8 (8 - Approaching complete kill)
- GALAP rating ([8]; rate 0.100 kg/ha): 8 (8 - Approaching complete kill)
- GALAP rating ([8]; rate 0.400 kg/ha): 8 (8 - Approaching complete kill)
- STEME rating ([9]; rate 0.025 kg/ha): 4 (4 - Injury)
- STEME rating ([9]; rate 0.100 kg/ha): 5 (5 - Definite injury)
- STEME rating ([9]; rate 0.400 kg/ha): 6 (6 - Herbicidal effect)
- ZEAMX rating ([10]; rate 0.025 kg/ha): 2 (2 - Slight effect)
- ZEAMX rating ([10]; rate 0.100 kg/ha): 2 (2 - Slight effect)
- ZEAMX rating ([10]; rate 0.400 kg/ha): 3 (3 - Moderate effect)
- TRZAW rating ([11]; rate 0.025 kg/ha): 1 (1 - Trace effect)
- TRZAW rating ([11]; rate 0.100 kg/ha): 2 (2 - Slight effect)
- TRZAW rating ([11]; rate 0.400 kg/ha): 3 (3 - Moderate effect)
- GLXMA rating ([12]; rate 0.025 kg/ha): 1 (1 - Trace effect)
- GLXMA rating ([12]; rate 0.100 kg/ha): 1 (1 - Trace effect)
- GLXMA rating ([12]; rate 0.400 kg/ha): 2 (2 - Slight effect)
- MATIN rating ([13]; rate 0.025 kg/ha): 8 (8 - Approaching complete kill)
- MATIN rating ([13]; rate 0.100 kg/ha): 9 (9 - Complete kill)
- MATIN rating ([13]; rate 0.400 kg/ha): 9 (9 - Complete kill)
- IPOHE rating ([14]; rate 0.025 kg/ha): 7 (7 - Good herbicidal effect)
- IPOHE rating ([14]; rate 0.100 kg/ha): 9 (9 - Complete kill)
- IPOHE rating ([14]; rate 0.400 kg/ha): 9 (9 - Complete kill)
- ECHCG rating ([15]; rate 0.025 kg/ha): 4 (4 - Injury)
- ECHCG rating ([15]; rate 0.100 kg/ha): 6 (6 - Herbicidal effect)
- ECHCG rating ([15]; rate 0.400 kg/ha): 8 (8 - Approaching complete kill)
- ABUTH rating ([16]; rate 0.025 kg/ha): 5 (5 - Definite injury)
- ABUTH rating ([16]; rate 0.100 kg/ha): 5 (5 - Definite injury)
- ABUTH rating ([16]; rate 0.400 kg/ha): 7 (7 - Good herbicidal effect)
- SETVI rating ([17]; rate 0.025 kg/ha): 8 (8 - Approaching complete kill)
- SETVI rating ([17]; rate 0.100 kg/ha): 9 (9 - Complete kill)
- SETVI rating ([17]; rate 0.400 kg/ha): 9 (9 - Complete kill)
- ALOMY rating ([18]; rate 0.025 kg/ha): 5 (5 - Definite injury)
- ALOMY rating ([18]; rate 0.100 kg/ha): 8 (8 - Approaching complete kill)
- ALOMY rating ([18]; rate 0.400 kg/ha): 8 (8 - Approaching complete kill)
- GALAP rating ([19]; rate 0.025 kg/ha): 2 (2 - Slight effect)
- GALAP rating ([19]; rate 0.100 kg/ha): 7 (7 - Good herbicidal effect)
- GALAP rating ([19]; rate 0.400 kg/ha): 7 (7 - Good herbicidal effect)
- STEME rating ([20]; rate 0.025 kg/ha): 9 (9 - Complete kill)
- STEME rating ([20]; rate 0.100 kg/ha): 9 (9 - Complete kill)
- STEME rating ([20]; rate 0.400 kg/ha): 9 (9 - Complete kill)
